Activity calls are given as the source filed them.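 Rule for the calls: active = compounds giving half or more protection of infected cells from virus-caused growth loss, again on retest; inactive = the rest.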 Where a SMILES comes first, the peptide text is derived from it. Bridges are numbered along the chain shown (N, C = ends). The star is where a group is joined. Cbz = O=C(OCc1ccccc1)*
Test system: CEM cells HIV-1 protection, formazan growth assay
Assay: NCI AIDS Antiviral Assay
Details: for IC50: measured here: growth of uninfected CEM cells
In short: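 CEM (human) cells, HIV-1 infected vs uninfected, 5-point dosing, formazan growth read-out. Retest threshold 50% protection.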

| Compound | EC50 [µM] | IC50 [µM] | outcome |
| --- | --- | --- | --- |
| CC1CCCOc2ccc(cc2)C=Nc2ccc(cc2)CCc2ccc(cc2)N=Cc2ccc(cc2)OCCC1 (centres undefined) | > 200 | > 200 |  |
| c1ccc(C2CN=C(c3ccccn3)C(c3ccccn3)=N2)cc1 (centres undefined) | > 60.3 | > 60.3 |  |
| Cc1ccccc1[B-]12OCC[N+]1(CNC(=O)C1=C(O)C3(O)C(=O)C4=C(O)c5c(O)cccc5C(C)(O)C4CC3C(N(C)C)C1=O)CCO2 (centres undefined) | > 53.7 | > 53.7 |  |
| Cc1ncc([N+](=O)[O-])n1CCOC(N)=O | > 200 | > 200 |  |
| CC(=O)OCCOCn1c2ccccc2c2c3c(c4c5ccccc5n(COCCO)c4c21)C(=O)N(Cc1ccccc1)C3=O |  |  | inactive |
| CN1C(=O)Cn2c(nn(Cc3ccccc3)c(=O)c2=O)-c2cc(Cl)ccc21 | 42.7 | 67.6 |  |
| CCC(O)(Cc1ccccc1)C(C(=O)O)c1ccccc1 (centres undefined) | > 457 | 339 |  |
| CC(C)CNC(=S)N/N=C\c1ccncc1 | > 200 | 105 |  |
| CC/C(=C(\c1ccccc1)c1ccc(OCC[N+](C)(C)C)cc1)c1ccccc1 |  |  | inactive |
| O/N=C1\CC2(N3CCOCC3)CCC1(Cc1ccccc1)CC2 | > 100 | > 100 |  |
| NC(=O)C(=CNC(=S)NCc1ccccc1)C(N)=O | > 200 | > 200 |  |
| CCCNC(=O)N(C(C)C)S(=O)(=O)c1ccc(Cl)cc1 |  |  | inactive |
| C[C@@H]1C[C@H](O)[C@]2(O)O[C@@H]3C[C@@]4(C=O)[C@@H](CC=C5[C@@H]4CC[C@]4(C)[C@@H](C6=CC(=O)OC6)CC[C@]54O)C[C@H]3O[C@@H]2O1 | > 0.1 | 0.0138 |  |
| CC(C)CCCC(C)[C@H]1CC[C@H]2[C@H]3CC[C@H]4C[C@@H](CCC=C(c5cc(Cl)c(O)c(C(=O)O)c5)c5cc(Cl)c(O)c(C(=O)O)c5)CC[C@]4(C)[C@H]3CC[C@]12C (some centres undefined) | > 200 | > 200 |  |
| CN(C)C[C@H]1C2C=CC(C2)[C@@H]1CO (some centres undefined) | > 490 | > 490 |  |
| CC1CC(c2ccc3ccccc3c2)NCCNC(c2ccc3ccccc3c2)CC(C)NCCN1 (centres undefined) | > 200 | 1.15 |  |
| c1ccc(CC[P+](c2ccccc2)(c2ccccc2)c2ccccc2)cc1 | > 200 | 1.29 |  |
| S=c1nc(Cc2ccc(Cl)cc2)[nH][nH]1 | > 200 | 56.2 |  |
| CC(C)(C)C1CC[C@H]2c3c([nH]c4ccccc34)[C@H]3C(=O)N(c4ccc(F)cc4)C(=O)[C@H]3[C@H]2C1 (some centres undefined) | > 11.7 | > 11.7 |  |
| C=C1CC2CCCC12C=O (centres undefined) | > 263 | 145 |  |
| Cc1ccccc1NC(=O)Cc1csc(N=Nc2c(O)[nH]c3ccccc23)n1 | > 200 | > 200 |  |

| Compound | EC50 [µM] | IC50 [µM] | outcome |
| --- | --- | --- | --- |
| CNC(=O)NCCN1CC2CCC(CC2)C1 | > 200 | > 200 |  |
| CCOC(=O)c1[nH]cc(C)c1-c1cccn1-c1ccc(Cl)cc1[N+](=O)[O-] | > 200 | 30.9 |  |
| O=C1C=C(Nc2ccc(Cl)cc2Cl)C(=O)C=C1Nc1ccc(Cl)cc1Cl | > 200 | > 200 |  |
| O=C1C(=Cc2ccc([N+](=O)[O-])cc2)C(=O)c2ccccc21 | > 49 | 11.7 |  |
| O/N=c1/sc2ccccc2nc1-c1ccccc1 | > 200 | > 200 |  |
| NC(=O)c1ccc(NC(=O)c2ccccc2SC(=O)CCCC[n+]2ccccc2)cc1 | 7.41 | 15.8 |  |
| CC(NC(=O)OC(C)(C)C)C(=O)NC(Cc1ccccc1)C(=O)NCC(=O)ON=C1CCCC1 (centres undefined) | > 200 | 25.7 |  |
| COC(=O)c1cc(Cc2cc(C(c3cc(Cc4cc(Cl)c(O)c(C(=O)OC)c4)c(O)c(C(=O)OC)c3)C(Cl)(Cl)Cl)cc(C(=O)OC)c2O)cc(Cl)c1O | > 200 | > 200 |  |
| CN(C)C1C(=O)C(C(=O)NCNCCC(=O)O)=C(O)C2(O)C(=O)C3=C(O)c4c(O)cccc4C(C)(O)C3CC12 (centres undefined) | > 11.2 | > 11.2 |  |
| Cc1cc2c(C(C)C)c(O)c(O)c(C=NC(C)c3ccccc3)c2c(O)c1-c1c(C)cc2c(C(C)C)c(O)c(O)c(C=NC(C)c3ccccc3)c2c1O (centres undefined) | > 7.24 | > 7.24 | inactive |
| COc1cc(C)cc2ccc(Br)c(O)c12 | > 200 | > 200 |  |
| CN(C)C(=O)N1N[C@H](c2ccccc2)[C@@H]1c1ccccc1 | > 200 | 135 |  |
| COC(=O)c1cc(=O)n2c(c1C(C)=O)N(C)CC2 | > 427 | > 427 |  |
| O=C(CC(=O)c1ccccc1)CC(=O)c1ccccc1 | > 19.5 | > 19.5 |  |
| CC1=C(N2CC2)C(=O)c2nc3n(c2C1=O)CCC3O (centres undefined) |  |  | inactive |
| CCC(C)N1CN(c2ccccc2)C2(CCN(CCCC3(c4ccc(F)cc4)OCCO3)CC2)C1=O (centres undefined) | > 200 | 6.92 |  |
| CC1CCCN2C(=O)CN(Cc3ccccc3)CC(=O)N12 (centres undefined) |  |  | inactive |
| CN(C)c1cc2c3c(c1)CCCN3CCC2 | > 200 | 11.5 |  |
| CCOC(=O)C[C@@H]1C2(C=C[C@@]13CO3)OCC(C)(C)CO2 | > 200 | 129 |  |
| O=c1c2ccccc2n2c(-c3ccc(O)cc3)nnc2n1-c1ccccc1 | > 200 | > 100 |  |
| COC(=O)/C=C(\C(=O)OC)c1c(C)c(C)c2c(C)cc(C)cc(C)c1-2 | > 200 | 16.6 |  |

| Compound | EC50 [µM] | IC50 [µM] | outcome |
| --- | --- | --- | --- |
| Cn1nc(S(N)(=O)=O)s/c1=N/C(N)=S | > 200 | > 200 |  |
| O=C(Cn1c(=O)oc2ccc(C(=O)c3cccc(Cl)c3)cc21)c1ccccc1 | > 200 | 56.2 |  |
| CC(CS(=O)(=O)O)NC(CO)(CO)CO (centres undefined) | > 200 | > 200 |  |
| COc1ccc(-n2[nH]c(=O)n(C)c2=O)cc1 | > 200 | > 200 |  |
| Cc1cc(=O)[nH]c(-n2[nH]c(C)c(CCO)c2=O)n1 | > 200 | > 200 |  |
| CNC(=O)C1CCCCNC(=O)CCC(NC(=O)OCc2ccccc2)C(=O)N1 (stereo not drawn) (Cbz-Glu-Lys-NHMe; lactam 1-2; configuration not given here) | > 200 | > 200 |  |
| COc1cc2ccnc([C@@H](OC(=O)c3ccccc3)c3ccc(OC)c(OC)c3OC)c2cc1OC |  |  | inactive |
| O=C1ON(c2ccccc2)C(c2ccccc2)N1c1ccccc1 (centres undefined) | > 200 | 61.7 |  |
| COc1ccc(/C=C/C(=O)c2sc(N)nc2C)cc1 | > 912 | 479 |  |
| C=CCC(C=C=CCN(C)C)CO (centres undefined) | > 1200 | 631 |  |
| Cc1cc(C)c2c(c1)N[S@@](=O)S2 | > 13.5 | > 13.5 |  |
| CC1=Nc2ccccc2SC(c2c(Cl)cccc2Cl)C1 (centres undefined) | > 22.4 | 4.57 |  |
| CCOC(=O)c1ccc(CSc2ccc([N+](=O)[O-])cc2)cc1 | > 6.31 | > 6.31 |  |
| CSc1nn(C)cc2ncnc1-2 | > 200 | > 200 |  |
| Cc1cc[n+](CC(=O)CC([O-])(C(F)(F)F)C(F)(F)F)cc1 | > 200 | > 200 |  |
| N#Cc1c(-c2ccc(Cl)c(Cl)c2)c(-c2ccc(Cl)c(Cl)c2)nn(CCO)c1=O | > 41.7 | 0.759 |  |
| CC#COP(=O)(OCC)OCC | > 251 | > 251 |  |
| Cc1ccsc1C(=S)Nc1ccc(Cl)c(C(=O)OC(C(C)C)C(C)C)c1 | 0.309 | 21.4 |  |
| C#Cc1c(C)c(/C=C/C(C)=C/C(=O)OC)n(C)c1C |  |  | inactive |
| COc1ccc(OC)c2c(Nc3ccc(S(=O)(=O)O)c4cc(S(=O)(=O)O)cc(S(=O)(=O)O)c34)cc(C)nc12 | > 200 | > 200 |  |
| CN(C)c1cccc2c(S(=O)(=O)NCCCCCCCCCCCCNS(=O)(=O)c3cccc4c(N(C)C)cccc34)cccc12 | > 200 |  |  |

| Compound | EC50 [µM] | IC50 [µM] | outcome |
| --- | --- | --- | --- |
| Nc1c(-c2ccccc2)c2ccc([N+](=O)[O-])cc2c(=O)n1-c1cccc(C(=O)O)c1 | > 200 | 135 |  |
| O=C(CCC(=O)Nc1ccc(Cl)c(Cl)c1)CC(=O)c1ccc2ccccc2c1 |  |  | inactive |
| COc1cc2c(cc1OC)C1CC(=O)C(CCCCCCC3CN4CCc5cc(OC)c(OC)cc5C4CC3=O)CN1CC2 (centres undefined) |  |  | inactive |
| CCC(=O)C[P+](c1ccccc1)(c1ccccc1)c1ccccc1 | > 200 | 69.2 |  |
| Fc1ccc2nncc(SCc3ccccc3Cl)c2c1 | > 87.1 | 35.5 |  |
| CC1=NN(c2ccccc2)C(=O)/C1=C1\SC(c2ccccc2)(c2ccccc2)c2ccccc21 | > 200 | > 200 |  |
| O=C(Nc1ccccc1)C(=O)C(C(=O)c1ccccc1)C(c1ccccc1)c1ccccc1 (centres undefined) | > 200 | 37.2 |  |
| CC(C)CCC[C@@H](C)[C@H]1CC[C@H]2[C@@H]3CC=C4CC(OC(=O)OC5CCC6(C)CC7C=CC6(OO7)C5(C)C)CC[C@]4(C)[C@H]3CC[C@]12C (some centres undefined) | > 100 | > 100 |  |
| COCc1cn(C2CCC(CO)O2)c(=O)nc1N (centres undefined) | > 490 | > 490 |  |
| CCOC(=O)c1ccc(-n2c(SCC)nc3sc(C)c(C)c3c2=O)cc1 | > 200 | > 200 |  |
| CCCCCCCCCCCCCC(=O)CSCCNC(=O)CCNC(=O)[C@@H](O)C(C)(C)COP(=O)(O)OP(=O)(O)OCC1OC(n2cnc3c(N)ncnc32)C(O)C1OP(=O)(O)O (some centres undefined) |  |  | inactive |
| Cc1cc(C)nc(NS(=O)(=O)c2ccc(Nc3c4ccccc4nc4ncccc34)cc2)n1 |  |  | inactive |
| Clc1ccc(C2ON=C(c3ccccc3)N2C23CC4CC(CC(C4)C2)C3)c(Cl)c1 (centres undefined) | > 200 | > 200 |  |
| CCOC(=O)C(NC(=O)c1cccc(Cl)c1)(Nc1ccc(S(=O)(=O)Nc2cc(C)on2)cc1)C(F)(F)F (centres undefined) | > 200 | 155 |  |
| COC1(OC)/C(=C(\N)C=O)NC(C)(C)N1O |  |  | inactive |
| N#C/C(=C\n1c(=S)[nH]c2ccc([N+](=O)[O-])cc21)c1nc2ccccc2s1 | > 200 | 102 |  |
| CC(=O)OC1CC2OC2(C)C2[C@H](O)C34O[C@@]3(C)C(=O)O[C@H]4/C=C(/C)C[C@H](OC(C)=O)[C@H](OC(C)=O)[C@@]12C (some centres undefined) | > 123 | 75.9 |  |
| CCOC(=O)c1ccc(N2C(=O)c3cccc4cccc(c34)C2=O)cc1 | > 100 | > 100 |  |
| CC(=O)N1CC(C)(C)c2c1cc(C)c(O)c2C | > 200 | 132 |  |
| CCOC(=O)c1ccc(CS(=O)(=O)c2ccc(Cl)cc2)c([N+](=O)[O-])c1 | > 49 | > 49 |  |

Source: PubChem BioAssay AID179 (DTP/NCI, 2004)
